Laboratory results: US11952360B2, “Dibenzothiophene compounds” (Saint Louis University, priority 2019, dated 2024)

What was measured:
[1] = UV/visible absorbance spectra in acetonitrile; assay type: physicochemical; settings: for molar absorptivity: 0.01 mM solutions in HPLC grade acetonitrile; for λabs (absorbance maxima): Measured in CAN
Method: (§1) All chemicals were obtained from Alfa Aesar, Oakwood Chemical, Ark Pharm, ThermoFisher Scientific, and Sigma-Aldrich. They were used without further purification. Flash chromatography was performed using a Biotage Horizon with silica gel (SiliaFlash P60) purchased from SiliCycle. ^1H and ^13C NMR spectra were gathered on a Bruker DRX-400 in either DMSO-d6 or CDCl3. High-resolution mass spectra were measured using a ThermoScientific Q Exactive Orbitrap equipped with a Nano ESI ionization source. Absorption spectra were recorded using a Shimazdu UV-1800 UV-Vis spectrophotometer using samples contained in 10×10 mm quartz cell at a concentration of 0.01 mM. Fluorescence spectra were gathered on a Shuimazdu RF-5301 PC in a 10×10 mm quartz cuvette.
(§2) The two dyes, upon their successful synthesis and isolation, had their photophysical data gathered beginning with absorbance, which was measured through the visible and ultraviolet region. Absorbance spectra were gathered using 0.01 mM solutions of the respective compound in HPLC grade acetonitrile. The spectra are nearly identical. This was of no surprise as the chromophore is the same on both molecules; however, 9 has a more substantial absorbance than 4 with a respective molar absorptivity of 66,000 M^−1cm^−1 and 51,700 M^−1 cm^−1. The absorbance determination was followed by the fluorescence emission and excitation spectra being gathered using solutions where the absorbance of the respective compound was 0.041 at 250 nm in acetonitrile (FIG. 1). This was done to save material as the same solutions were then used to determine the fluorescent quantum yield. The excitation spectra of 4 and 9 followed the same pattern, though the two were slightly offset from one another when overlaid with respect to the x-axis.

[2] = Fluorescence excitation/emission spectra and fluorescent quantum yield (single point method, naphthalene standard); assay type: physicochemical; settings: for λex (excitation maxima): Measured in CAN; for λem (emission maxima) / φ (fluorescent quantum yield, single point method): Measured in CAN (acetonitrile); for φ (fluorescent quantum yield, single point method): naphthalene standard, absorbance 0.041 at 250 nm
Method: as §1, §2
The fluorescent quantum yield was then determined by the single point method with Eq. 1.
Naphthalene was used as the standard where it was also made into a solution with acetonitrile at a concentration which allowed the absorbance to be 0.041 at 250 nm. The fluorescent quantum yields of 4 and 9 were determined to be 0.40 and 0.67, respectively.

[3] = system: HeLa cells; experiment: Fluorescence imaging of HeLa cells without co-stain; assay type: cell-based; settings: 5.0 uM dye, approximately 2 hours, no co-stain
Method: (§3) All images were captured with a Leica DM 400 B microscope with a DFC3000G camera (Leica Microsystems, Germany) and 63× oil immersion or 40× lenses. HeLa cells were staged according to the aforementioned methods. Leica LASX Core Software (Leica Microsystems, Germany) was used to acquire the images. All images were processed using ImageJ. The Pearson correlation coefficient was calculated using the image of a single cell using an ImageJ plugin called Colocalization Finder by Christophe Laummonerie and Jerome Mutterer of Institut de Biologie Moleculaire des Plantes.
Sterile glass poly-D-lysine coated #1.5 cover slips (NeuVitro), pre-incubated with culture medium, were placed in sterile 6-well plates. A single cell suspension of the HeLa (cervical cancer cell) cell line was prepared at 5×10^4 cells mL^−1 in the appropriate medium. Volumes of 2.0 mL were pipetted into each of the wells containing the coverslips. The 6-well plate was left overnight at 37.0° C. in a 5.0% CO2 incubator. Following the overnight incubation, the plate was aspirated dry and then PBS, containing the drug (at 5.0 uM and 0.10% DMSO) in a volume of 2.0 mL, was gently pipetted onto the cell monolayers attached to the glass cover slips. Cells on the cover slips were exposed to the dye for approximately 2 hours in the incubator at 37.0° C. in a 5.0% CO2. […]

[4] = system: HeLa cells; experiment: Fluorescence imaging of HeLa cells with CellMask Orange co-stain (colocalization); assay type: cell-based; settings: for cellular localization: HeLa cells co-stained with CellMask Orange, 10 minutes; for Pearson correlation coefficient with CellMask Orange: HeLa cells, 10 minutes incubation, single cell image, DAPI vs Cy-5 filter sets
Method: as §3
To further optimize staining and understand the localization of the dyes in HeLa cells, a co-stain was introduced to the cells with the dyes while also utilizing a shorter incubation time. Sterile glass poly-D-lysine coated #1.5 cover slips (NeuVitro), pre-incubated with culture medium, were placed in sterile 6-well plates. A single cell suspension of the HeLa (cervical cancer cells) cell line was prepared at 5×10^4 cells ml-1 in the appropriate medium. Volumes of 2.0 mL were pipetted into each of the wells containing the coverslips. The 6-well plate was left overnight at 37.0° C. in a 5.0% CO2 incubator. Following the overnight incubation, the plate was aspirated and PBS, containing the CellMask Orange (ThermoFischer Scientific) (at 1000× dilution with 0.10% DMSO) in a volume of 1.8 mL, was gently pipetted onto the cell monolayers attached to the glass cover slips. To the CellMask doped PBS 200 μl of 4 or 9 at 50 μM was added to the respective well. Cells on the cover slips were exposed to the dye for approximately 10 minutes. Cells were washed with PBS and treated with 4.0% paraformaldehyde solution prepared in PBS, incubated for 30 minutes at room temperature for full fixation. Three washes with 1 ml of PBS were completed to ensure excess solution was rinsed away. Glass cover slips were removed and mounted on slides with ProLong Gold Antifade Mountant (ThermoFisher Scientific). The specimen was dried for several minutes and sealed with clear nail polish before visualized under a microscope.
The modest modification came in two parts; the PBS used to replace the media was now doped with a 1000× dilution of CellMask Orange (plasma membrane dye) and the incubation time for the co-stain and dyes was shortened to 10 minutes. These subtle modifications were done to determine if the dyes, 4 and 9, could be used with short incubation periods and to follow the manufacture's staining instructions for CellMask Orange. […] CellMask Orange is a known dye which readily localizes in the plasma membrane. […] The overlap was quantified using a Pearson correlation coefficient calculation with the Colocalization Finder plugin for ImageJ using a single cell image cropped from the images. […]

[5] = system: HeLa cells; experiment: Metabolic proliferation (MTS) assay, toxicity in HeLa cells; assay type: cell-based
Method: HeLa cells were cultured in RPMI (ThermoFisher) supplemented with 10% FBS (ThermoFisher) and 1% penicillin-streptomycin (ThermoFisher 10000 U/mL). Cells (5000 cells/well in 100 μL) were plated in a 96-well culture plate (Greiner) and incubated for […]. Fifty microliters of the compound dissolved in complete media (final DMSO concentration 1%) at final concentrations of 100 μM, 10 μM, 1 μM, 100 nM, 10 nM, and 1 nM were added to the appropriate wells. After incubation of the cells at 37° C. in a humidified atmosphere of 5% CO2 for 120 h, the cells were stained and incubated with MTS reagent (Promega) for 2 h to determine cell viability. The absorbance of each well was taken at 490 nm using a multimode plate reader (FlexStation 3, Molecular Devices, San Diego, Calif.). GraphPad Prism was used to analyze data to determine the percent viability. […] Quadruplicate measurements were performed for each compound.
The toxicity of 4 and 9 was determined in HeLa cells. The HeLa cells were treated with concentrations of the respective dye varying between 1 nm and 100 μM for 72 hours.

[6] = 100 μM, 72 hours (FIG. 4: 120 h)
[7] = concentrations needed for standard imaging protocols (range 1 nm to 100 μM), 72 hours

Structure (SMILES) | log εmax (maximum molar extinction coefficient) [1] | molar absorptivity [1] | λabs (absorbance maxima) [1] | Stokes Shift [2] | λex (excitation maxima) [2] | λem (emission maxima) [2] | φ (fluorescent quantum yield, single point method) [2] | distribution of emission in the cell [3] | cellular localization [4] | Pearson correlation coefficient with CellMask Orange [4] | toxicity [5, 6] | toxicity [5, 7]
O=C(O)CCCc1ccc2c(c1)-c1ccccc1S2(=O)=O [Compound 4, 4-(5,5-dioxidodibenzo[b,d]thiophen-2-yl)butanoic acid] | 3.71 M^−1 cm^−1 | 51,700 M^−1cm^−1 | 244 nm | 38 nm | 244 nm | 359 nm | 0.4 | stronger emission from the center of the cell | localize in the plasma membrane | 0.66 | display toxicity | neither dye displayed toxicity
CCCCCCCCc1ccc2c(c1)-c1cc(CCCC(=O)O)ccc1S2(=O)=O [Compound 9, 4-(8-octyl-5,5-dioxidodibenzo[b,d]thiophen-2-yl)butanoic acid] | 3.81 M^−1 cm^−1 | 66,000 M^−1cm^−1 | 247 nm | 38 nm | 248 nm | 357 nm | 0.67 | more extranuclear emission | localize in the plasma membrane | 0.81 | display toxicity | neither dye displayed toxicity
